Experimental data published in US12459974B2, “Bicyclic peptide ligands specific for Nectin-4” (priority 2018, dated 2025).
*1 amine or outer side, *2 acyl side, *3 side chain or, on linkers, in order; H or OH if unused. Where a SMILES comes first, the peptide text is derived from it. Bridges are numbered along the chain shown (N, C = ends). Roman numbers before positions name the chains, in order. [ ]: non-standard residue; d: D form. The star is where a group is joined. ξ: configuration not given here. TATA = O=C(CC[*:1])N1CN(C(=O)CC[*:2])CN(C(=O)CC[*:3])C1; Dolaproine = CO[C@@H]([C@@H]1CCCN1)[C@@H](C)C(=O)O; X1 = CC[C@H](C)C(C(CC(=O)[*:2])OC)N(C)[*:1]; 1Nal = N[C@@H](Cc1cccc2ccccc12)C(=O)O; X3 = O=C(CCCC(=O)[*:2])NCCC(=O)[*:1]; PABC = O=C(OCc1ccc(N[*:1])cc1)[*:2]; Hyp = O=C(O)[C@@H]1C[C@@H](O)CN1; hArg = N=C(N)NCCCC[C@H](N)C(=O)O; Cit = NC(=O)NCCC[C@H](N)C(=O)O; X2 = CC(N*)[C@@H](O)c1ccccc1; ξNMeV = CNC(C(=O)O)C(C)C; ξV = CC(C)C(N)C(=O)O; Sar = CNCC(=O)O

Columns and labels:
Panc2.13 xenograft = test: Example 9.7: in vivo efficacy in Panc2.13 xenograft in Balb/c nude mice; conditions: for Tumor volume: iv
Procedure: (§5) The major endpoint was to see if the tumor growth could be delayed or mice could be cured. Tumor volume was measured three times weekly in two dimensions using a caliper, and the volume was expressed in mm^3 using the formula: V=0.5 a×b^2 where a and b are the long and short diameters of the tumor, respectively. The tumor size was then used for calculations of T/C value. The T/C value (in percent) is an indication of antitumor effectiveness; T and C are the mean volumes of the treated and control groups, respectively, on a given day. TGI was calculated for each group using the formula: TGI (%)=[1−(Ti−T0)/(Vi−V0)]×100; Ti is the average tumor volume of a treatment group on a given day, T0 is the average tumor volume of the treatment group on the day of treatment start, Vi is the average tumor volume of the vehicle control group on the same day with Ti, and V0 is the average tumor volume of the vehicle group on the day of treatment start.
(§6) A one-way ANOVA was performed to compare tumor volume among groups, and when a significant F-statistics (a ratio of treatment variance to the error variance) was obtained, comparisons between groups were carried out with Games-Howell test. All data were analyzed using GraphPad Prism 5.0. P<0.05 was considered to be statistically significant.
• Species: Mus Musculus • Strain: Balb/c nude • Age: 6-8 weeks • Sex: female • Body weight: 18-22 g • Number of animals: 41 mice plus spare 3.1.2.
The Panc2.13 tumor cells will be maintained in RMPI1640 medium supplemented with 15% heat inactivated fetal bovine serum and 10 units/ml human recombinant insulin at 37° C. in an atmosphere of 5% CO2 in air. The tumor cells will be routinely subcultured twice weekly. The cells growing in an exponential growth phase will be harvested and counted for tumor inoculation.
Each mouse was inoculated subcutaneously at the right flank with Panc2.13 tumor cells (5×10^6 with Matrigel (1:1) in 0.2 ml of PBS for tumor development. 41 animals were randomized when the average tumor volume reached 149 mm^3. The test article administration and the animal numbers in each group were shown in the experimental design table.
Tumor growth inhibition rate for Test articles in the Panc2.13 xenograft model was calculated based on tumor volume measurements at day 14 after the start of treatment.

CTG-0896 = conditions: qw iv
Excerpt: (§1) To evaluate the antitumor activity of Bicycle Agent in Low Passage Champions TumorGraft Models of Human Breast, Esophageal, and Bladder Cancer in Immunocompromised mice.
(§2) • Species: Mouse • Strain: Athymic Nude-Foxn1nu (Immune-compromised) • Source: Envigo: Indianapolis, Indiana • Gender: Female • Target age at initiation of dosing: At least 6-8 weeks of age • Target weight at initiation of dosing: At least 18 grams • Acclimation period: 3 days Experimental Design
(§3) Pre-study Animals: When sufficient stock animals reach 1.0-1.5 cm^3, tumors will be harvested for re-implantation into pre-study animals. Pre-study animals will be implanted unilaterally on the left flank with tumor fragments harvested from stock animals. Each animal is implanted from a specific passage lot and documented.
(§4) Study Animals: Pre-study tumor volumes are recorded for each experiment beginning seven to ten days after implantation. When tumors reach an average tumor volume of 150-300 mm^3, animals will be matched by tumor volume into treatment or control groups to be used for dosing and dosing initiated on Day 0.

CTG-1106 = conditions: qw iv
Excerpt: as §1, §2, §3, §4

CTG-1771 = conditions: qw iv
Excerpt: as §1, §2, §3, §4

CTG-1171 = conditions: qw iv
Excerpt: as §1, §2, §3, §4

NCI-H526 xenograft = test: Example 9.6: in vivo efficacy in NCI-H526 xenograft in Balb/c nude mice; conditions: for Tumor volume: iv
Procedure: as §5, §6
• Species: Mus Musculus • Strain: Balb/c nude • Age: 6-8 weeks • Sex: female • Body weight: 18-22 g • Number of animals: 21 mice plus spare 3.1.2.
The NCI-H526 cells were maintained in medium supplemented with 10% heat inactivated fetal bovine serum at 37° C. in an atmosphere of 5% CO2 in air. The tumor cells were routinely subcultured twice weekly. The cells growing in an exponential growth phase were harvested and counted for tumor inoculation.
Each mouse was inoculated subcutaneously at the right flank with NCI-H526 tumor cells (5.0×10^6 in 0.2 ml of PBS for tumor development. 21 animals were randomized when the average tumor volume reached 181 mm^3. The test article administration and the animal numbers in each group were shown in the experimental design table.
Tumor growth inhibition rate for test articles in the NCI-H526 xenograft model was calculated based on tumor volume measurements at day 14 after the start of the treatment.

[1] = 3 mpk, biw, day 0 after the start of treatment
[2] = 3 mpk, qw, day 0 after the start of treatment
[3] = 5 mpk, qw, day 0 after the start of treatment

## CC[C@H](C)C(C(CC(=O)N1CCC[C@H]1[C@H](OC)[C@@H](C)C(=O)NC(C)[C@@H](O)c1ccccc1)OC)N(C)C(=O)[C@@H](NC(=O)C(C(C)C)N(C)C(=O)OCc1ccc(NC(=O)[C@H](CCCNC(N)=O)NC(=O)C(NC(=O)CCCC(=O)NCCC(=O)N(C)CC(=O)N(C)CC(=O)N(C)CC(=O)N(C)CC(=O)N(C)CC(=O)N(C)CC(=O)N(C)CC(=O)N(C)CC(=O)N(C)CC(=O)N(C)CC(=O)N[C@H]2CSCCC(=O)N3CN4CN(C3)C(=O)CCSC[C@H](NC(=O)[C@@H](CC(=O)O)NC(=O)[C@H](Cc3cccc5ccccc35)NC(=O)[C@@H]3CCCN3C2=O)C(=O)N[C@@H](CCSC)C(=O)N[C@@H](CCCCNC(=N)N)C(=O)N[C@@H](CC(=O)O)C(=O)N[C@@H](Cc2c[nH]c3ccccc23)C(=O)N[C@@H](CO)C(=O)N[C@@H]([C@@H](C)O)C(=O)N2CCC[C@H]2C(=O)N2C[C@H](O)C[C@H]2C(=O)N[C@@H](Cc2c[nH]c3ccccc23)C(=O)N[C@H](C(N)=O)CSCCC4=O)C(C)C)cc1)C(C)C (stereo partly drawn) [BCY8245, MMAE-PABC-Cit-Val-Glutaryl-BCY8234] (I: [Sar][Sar][Sar][Sar][Sar][Sar][Sar][Sar][Sar][Sar]CP[1Nal][dD]CM[hArg]DWSTP[Hyp]WC-NH2 / II: [ξV][Cit][PABC][ξNMeV]V[X1][Dolaproine]-X2; linker I:11-I:15-I:25 via TATA; linker I:N-II:N via X3)
Panc2.13 xenograft; 3 mg/kg biw, day 14
  TGI: 79.1%
  Tumor volume (TV): 231 mm^3
Panc2.13 xenograft; 3 mg/kg qw, day 14
  TGI: 69.2%
  Tumor volume (TV): 271 mm^3
Panc2.13 xenograft; 5 mg/kg qw, day 14
  TGI: 77.5%
  Tumor volume (TV): 238 mm^3
Panc2.13 xenograft; [1]
  Tumor volume: 148 mm^3
Panc2.13 xenograft; 3 mpk, biw, day 2
  Tumor volume: 170 mm^3
Panc2.13 xenograft; 3 mpk, biw, day 4
  Tumor volume: 204 mm^3
Panc2.13 xenograft; 3 mpk, biw, day 7
  Tumor volume: 216 mm^3
Panc2.13 xenograft; 3 mpk, biw, day 9
  Tumor volume: 236 mm^3
Panc2.13 xenograft; 3 mpk, biw, day 11
  Tumor volume: 241 mm^3
Panc2.13 xenograft; 3 mpk, biw, day 14
  Tumor volume: 231 mm^3
  T/C: 42.3%
  TGI: 79.1%
  Tumor Volume (Mean ± SEM): 231 ± 57 mm^3
Panc2.13 xenograft; [2]
  Tumor volume: 149 mm^3
Panc2.13 xenograft; 3 mpk, qw, day 2
  Tumor volume: 160 mm^3
Panc2.13 xenograft; 3 mpk, qw, day 4
  Tumor volume: 191 mm^3
Panc2.13 xenograft; 3 mpk, qw, day 7
  Tumor volume: 215 mm^3
Panc2.13 xenograft; 3 mpk, qw, day 9
  Tumor volume: 242 mm^3
Panc2.13 xenograft; 3 mpk, qw, day 11
  Tumor volume: 259 mm^3
Panc2.13 xenograft; 3 mpk, qw, day 14
  Tumor volume: 271 mm^3
  T/C: 49.6%
  TGI: 69.2%
  Tumor Volume (Mean ± SEM): 271 ± 54 mm^3
Panc2.13 xenograft; [3]
  Tumor volume: 149 mm^3
Panc2.13 xenograft; 5 mpk, qw, day 2
  Tumor volume: 180 mm^3
Panc2.13 xenograft; 5 mpk, qw, day 4
  Tumor volume: 231 mm^3
Panc2.13 xenograft; 5 mpk, qw, day 7
  Tumor volume: 242 mm^3
Panc2.13 xenograft; 5 mpk, qw, day 9
  Tumor volume: 248 mm^3
Panc2.13 xenograft; 5 mpk, qw, day 11
  Tumor volume: 231 mm^3
Panc2.13 xenograft; 5 mpk, qw, day 14
  Tumor volume: 238 mm^3
  T/C: 43.6%
  TGI: 77.5%
  Tumor Volume (Mean ± SEM): 238 ± 40 mm^3
Panc2.13 xenograft; mouse, in vivo
  tumor response (in words): tumor growth is restrained by BCY8245 but the tumor does not undergo regression
CTG-0896
  efficacy (in words): excellent efficacy evoking tumor regression
CTG-1106
  efficacy (in words): excellent efficacy evoking tumor regression
CTG-1771
  efficacy (in words): excellent efficacy evoking tumor regression
CTG-1171
  efficacy (in words): excellent efficacy evoking tumor regression
NCI-H526 xenograft; 3 mg/kg biw, day 14
  TGI: 21.6%
  Tumor volume (TV): 1109 mm^3
NCI-H526 xenograft; 3 mg/kg qw, day 14
  TGI: 13.4%
  Tumor volume (TV): 1205 mm^3
NCI-H526 xenograft; 5 mg/kg biw
  animal bodyweight loss: over 10%
NCI-H526 xenograft; 5 mg/kg qw, day 14
  TGI: 75.0%
  Tumor volume (TV): 476 mm^3
NCI-H526 xenograft; [1]
  Tumor volume: 182 mm^3
NCI-H526 xenograft; 3 mpk, biw, day 2
  Tumor volume: 232 mm^3
NCI-H526 xenograft; 3 mpk, biw, day 4
  Tumor volume: 308 mm^3
NCI-H526 xenograft; 3 mpk, biw, day 7
  Tumor volume: 440 mm^3
NCI-H526 xenograft; 3 mpk, biw, day 9
  Tumor volume: 530 mm^3
NCI-H526 xenograft; 3 mpk, biw, day 12
  Tumor volume: 810 mm^3
NCI-H526 xenograft; 3 mpk, biw, day 14
  Tumor volume: 1109 mm^3
  T/C: 81.3%
  TGI: 21.6%
  Tumor Volume (Mean ± SEM): 1109 ± 250 mm^3
NCI-H526 xenograft; [2]
  Tumor volume: 180 mm^3
NCI-H526 xenograft; 3 mpk, qw, day 2
  Tumor volume: 256 mm^3
NCI-H526 xenograft; 3 mpk, qw, day 4
  Tumor volume: 403 mm^3
NCI-H526 xenograft; 3 mpk, qw, day 7
  Tumor volume: 545 mm^3
NCI-H526 xenograft; 3 mpk, qw, day 9
  Tumor volume: 657 mm^3
NCI-H526 xenograft; 3 mpk, qw, day 12
  Tumor volume: 1019 mm^3
NCI-H526 xenograft; 3 mpk, qw, day 14
  Tumor volume: 1205 mm^3
  T/C: 88.3%
  TGI: 13.4%
  Tumor Volume (Mean ± SEM): 1205 ± 79 mm^3
NCI-H526 xenograft; [3]
  Tumor volume: 180 mm^3
NCI-H526 xenograft; 5 mpk, qw, day 2
  Tumor volume: 209 mm^3
NCI-H526 xenograft; 5 mpk, qw, day 4
  Tumor volume: 236 mm^3
NCI-H526 xenograft; 5 mpk, qw, day 7
  Tumor volume: 383 mm^3
NCI-H526 xenograft; 5 mpk, qw, day 9
  Tumor volume: 375 mm^3
NCI-H526 xenograft; 5 mpk, qw, day 12
  Tumor volume: 365 mm^3
NCI-H526 xenograft; 5 mpk, qw, day 14
  Tumor volume: 476 mm^3
  T/C: 34.9%
  TGI: 75.0%
  Tumor Volume (Mean ± SEM): 476 ± 103 mm^3
NCI-H526 xenograft; mouse, in vivo
  tumor response (in words): tumor growth is restrained by BCY8245 but the tumor does not undergo regression
